In US5830912A, “Derivatives of 6,8-difluoro-7-hydroxycoumarin” (Molecular Probes, Inc., priority 1996, dated 1998):
Where two headings read alike, the source gives them in different places.

Legend:
acid phosphatase = experiment: Fluorogenic substrate assay for acid phosphatase activity; format: biochemical
Method: (§1) The utility of Compound 6 as a substrate for both alkaline and acid phosphatase is compared with the utility of the non-fluorinated analog, 4-methylumbelliferyl phosphate (MUP).
(§2) 1) Fluorescence yield: For an accurate comparison, the concentrations of the two substrates (initially approximately 10 mM) are matched by normalizing the absorbance of each substrate solution at 319 nm (pH 10) to a value of 0.52 (assuming the extinction coefficient of each substrate is approximately equivalent). The matched samples are then diluted 1:10 into excess enzyme buffer (10 units/mL), and the resulting fluorescence signal is recorded as a function of time (excitation 360 nm, emission 450 nm). The fluorescence yield obtained with acid phosphatase (pH 4.8, citrate buffer) is about 10 times greater when using Compound 6 than that obtained using MUP after one hour (FIG. 4). […] Using alkaline phosphatase (pH 10.4, glycine buffer with 1 mM MgCl2) the fluorescence yield obtained using Compound 6 is approximately 25% greater than that obtained using MUP (FIG. 4);
As above, the substrate samples are matched in concentration by normalizing absorbance values at 316 nm to a value of 0.525, then diluting 1:10.
3) Enzyme sensitivity: Serial dilutions of acid phosphatase are incubated with 50 μM of each substrate for 1 hour at pH 5, then fluorescence intensity at 460 nm is collected following 360 nm excitation.

alkaline phosphatase = experiment: Fluorogenic substrate assay with alkaline phosphatase; format: biochemical; details: pH 10.4 glycine buffer with 1 mM MgCl2, FIG. 4
Method: as §1, §2

β-galactosidase = β-galactosidase (Escherichia coli, UniProt P00722); experiment: Fluorogenic substrate assay for β-galactosidase activity; format: biochemical; details: for Km: read-out: Km (Michaelis-Menton constant), 0.01 units β-galactosidase, FIG. 9
β-galactosidase, sequence (P00722 2-1024): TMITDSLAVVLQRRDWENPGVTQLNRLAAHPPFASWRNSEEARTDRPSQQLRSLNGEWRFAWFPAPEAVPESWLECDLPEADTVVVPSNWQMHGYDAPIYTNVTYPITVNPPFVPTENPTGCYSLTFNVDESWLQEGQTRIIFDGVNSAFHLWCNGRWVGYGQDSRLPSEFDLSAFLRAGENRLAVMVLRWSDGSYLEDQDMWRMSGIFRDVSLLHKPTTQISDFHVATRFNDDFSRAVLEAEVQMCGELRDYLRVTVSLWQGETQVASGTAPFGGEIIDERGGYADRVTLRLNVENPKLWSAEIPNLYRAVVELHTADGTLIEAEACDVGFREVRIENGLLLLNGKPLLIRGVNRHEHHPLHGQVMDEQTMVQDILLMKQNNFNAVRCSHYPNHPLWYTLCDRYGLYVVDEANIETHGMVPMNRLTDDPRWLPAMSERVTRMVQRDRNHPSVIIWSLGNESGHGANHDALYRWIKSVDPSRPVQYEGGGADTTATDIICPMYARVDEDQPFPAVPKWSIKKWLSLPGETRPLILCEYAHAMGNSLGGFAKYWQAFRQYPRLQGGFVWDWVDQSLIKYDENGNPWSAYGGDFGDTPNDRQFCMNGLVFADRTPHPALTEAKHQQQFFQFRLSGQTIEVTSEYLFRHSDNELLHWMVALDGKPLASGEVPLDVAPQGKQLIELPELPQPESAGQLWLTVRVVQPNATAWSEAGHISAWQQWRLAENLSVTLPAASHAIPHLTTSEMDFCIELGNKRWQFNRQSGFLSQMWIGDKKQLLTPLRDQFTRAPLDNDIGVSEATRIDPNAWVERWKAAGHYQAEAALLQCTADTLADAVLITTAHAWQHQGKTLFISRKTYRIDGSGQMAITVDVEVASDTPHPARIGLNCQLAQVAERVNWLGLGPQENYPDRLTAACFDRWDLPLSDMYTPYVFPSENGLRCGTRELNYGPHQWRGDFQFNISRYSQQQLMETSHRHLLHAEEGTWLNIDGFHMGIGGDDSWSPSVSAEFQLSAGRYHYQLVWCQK
Method: The utility of Compound 9 as a substrate for β-galactosidase is compared with the utility of the non-fluorinated analog, 4-methylumbelliferyl β-D-galactoside (MUG).
1) Fluorescence yield: For an accurate comparison, the concentrations of the two substrates (initially approximately 10 mM) are matched by normalizing the absorbance of each substrate solution at 316 nm (pH 8.3; 20 mM sodium bicarbonate) to a value of 0.5 (assuming the extinction coefficient of each substrate is approximately equivalent). The matched samples are then diluted 1:10 into β-galactosidase buffer pH 7.0, and 2 units enzyme/mL are added. The use of Compound 9 as an enzyme substrate produces an approximately 8-fold signal enhancement over the use of MUG, when the fluorescence is measured at the reaction pH. […] However, even after optimization, the signal derived using Compound 9 (at pH 7.0) is still approximately 4-fold greater than that obtained using MUG (at pH 10).
2) Km determination: In a series of experiments, increasing amounts of each substrate are incubated with 0.01 units of β-galactosidase for 1 hour. The resulting fluorescence is measured by exciting at 360 nm, and the emission is collected at 460 nm.
3) Reaction rate: The fluorescence yield is measured at high substrate concentrations (50 μM) (relative to low enzyme concentration (0.01 units/mL)) over the course of 1 hour to compare reaction rates.
4) Enzyme sensitivity: Serial dilutions of […] are incubated with 50 μM of each substrate for 1 hour at pH 7, then fluorescence intensity at 460 nm is collected (following 360 nm excitation).

[1] = pH titration of fluorophores (pKa determination); format: physicochemical
Method: The dye of interest is first dissolved in a series of buffers that have each been calibrated using a pH meter. Acetate buffers are typically used in the range of pH 4-6, and phosphate buffers in the pH range 6-8. Absorption measurements are made using solutions that are approximately 10 μM in concentration, and fluorescence measurements are made using solutions that are approximately 1 μM in concentration. The absorption or emission data is then plotted versus pH to determine pKa values.

[2] = Quantum yield of selected dyes (Table 3); format: physicochemical
[3] = Photobleaching during illumination in a fluorometer; format: physicochemical; details: after 33 minutes of illumination in a fluorometer at the wavelength of maximum excitation
Method: | *Percent decrease in fluorescence intensity after 33 minutes of | illumination in a fluorometer at the wavelength of maximum excitation.

[4] = 1 hour, excitation 360 nm, emission 460 nm

SMILES | pKa [1] | Quantum Yield (pH 9) [2] | Photobleaching: percent decrease in fluorescence intensity [3] | other results
Cc1cc(=O)oc2c(F)c(OP(=O)(O)O)c(F)cc12 [Compound 6, 6,8-difluoro-7-hydroxy-4-methylcoumarin phosphate, free acid] |  |  |  | Enzyme concentration detection threshold, fold lower than with MUP (acid phosphatase; acid phosphatase 0.00001 to 10 units/mL, 50 μM substrate, 1 hour, pH 5, FIGS. 6 and 7): approximately 10 fold; Initial reaction rate of hydrolysis compared with MUP (acid phosphatase; acid phosphatase 0.01 units/mL, large excess of substrate, pH 4.8 citrate buffer, FIG. 5): significantly higher; Fluorescence signal relative to MUP after raising both reaction solutions to pH 10 (acid phosphatase; acid phosphatase reaction at pH 4.8, then raised to pH 10): twice as large; Sensitivity to enzyme concentration compared with MUP after raising the pH to 10 (acid phosphatase; acid phosphatase, 50 μM substrate, 1 hour at pH 5, then pH 10): approximately twice as sensitive; Fluorescence yield relative to MUP (acid phosphatase; acid phosphatase, pH 4.8 citrate buffer, after one hour, excitation 360 nm, emission 450 nm, FIG. 4): approximately 10 times; Fluorescence yield, increase over MUP (alkaline phosphatase): approximately 25%
Cc1cc(=O)oc2c(F)c(O[C@@H]3O[C@H](CO)[C@H](O)[C@H](O)[C@H]3O)c(F)cc12 [Compound 9, 6,8-difluoro-7-hydroxy-4-methylcoumarin, β-D-galactopyranoside] |  |  |  | Reaction rate with β-galactosidase compared with MUG (β-galactosidase; 50 μM substrate, 0.01 units/mL enzyme, 1 hour, FIG. 10): react more rapidly; Enzyme concentration detection threshold, fold lower than with MUG (β-galactosidase; 50 μM substrate, 1 hour, pH 7, FIG. 11): approximately 10 fold; Km (β-galactosidase; [4]): ~25 µM; Fluorescence signal enhancement over MUG at the reaction pH (β-galactosidase; β-galactosidase 2 units/mL, pH 7.0, emission 460 nm, excitation 360 nm, FIG. 8): approximately 8 fold; Fluorescence signal (at pH 7.0) relative to MUG optimized at pH 10 (β-galactosidase; β-galactosidase 2 units/mL, MUG reaction raised to pH 10 with NaOH): approximately 4 fold
Cc1cc(=O)oc2c(F)c(O)c(F)cc12 [Compound 4, 6,8-difluoro-7-hydroxy-4-methylcoumarin] |  | 0.89 | 5% | pKa ([1]; Table 3): 4.7
O=c1cc(C(F)(F)F)c2ccc(O)cc2o1 | 7.3 | 0.34 | 31% | 
Cc1cc(=O)oc2c(F)c(O)c(F)c(F)c12 | 4.2 | 0.54 |  | 
Cc1cc(=O)oc2cc(O[C@@H]3O[C@H](CO)[C@H](O)[C@H](O)[C@H]3O)ccc12 [MUG, 4-methylumbelliferyl β-D-galactoside] |  |  |  | Km (β-galactosidase; [4]): ~60 µM
Cc1cc(=O)oc2cc(O)ccc12 [7-hydroxy-4-methylcoumarin] | 7.9 | 0.63 | 22% | pKa ([1]; stated in Example 47 for the product of MUG deglycosylation): 7.8

The next lines start with results.

pKa [1] | Quantum Yield (pH 9) [2] | Photobleaching: percent decrease in fluorescence intensity [3] | SMILES | other results
~ 6.2 |  |  | Cc1c(CC(=O)O)c(=O)oc2c(F)c(O)c(F)cc12 [Compound 11, 6,8-difluoro-7-hydroxy-4-methylcoumarin-3-acetic acid] | 
4.0 | 0.23 | 7% | O=c1cc(C(F)(F)F)c2cc(F)c(O)c(F)c2o1 [Compound 20, 6,8-difluoro-7-hydroxy-4-trifluoromethylcoumarin] | 
5.9 | 0.78 | 12% | Cc1cc(=O)oc2cc(O)cc(F)c12 | 
5.7 | 0.44 | 18% | O=c1cc(C(F)(F)F)c2cc(F)c(O)cc2o1 | 
~ 7.4 |  |  | Cc1c(CC(=O)O)c(=O)oc2cc(O)ccc12 [7-hydroxy-4-methylcoumarin-3-acetic acid] | 
5.0 |  |  | O=c1oc2c(F)c(O)c(F)cc2cc1-c1nc2ccccc2s1 [Compound 17, 3-benzothiazolyl-6,8-difluoro-7-hydroxycoumarin] | 
6.4 | 0.64 | 20% | Cc1cc(=O)oc2cc(O)c(F)cc12 | 
